The text below walks through data of patent US12419879B2, “Combination therapy for the treatment of pancreatic cancer” (Genentech, Inc., priority 2016, dated 2025).

The test system of one assay is KP4 cells. Description: Small molecule inhibitor screen of KP4 cells in 2D monolayer and 3D spheroid cultures. It is filed as cell-based, human. The following applies: 2D monolayer vs 3D spheroid. On the procedure: Cell viability assays were performed by treating cells with a dose titration (0.001 to 10 μM) or fixed dose (1 μM) of the various pharmacologic inhibitors for 72 hrs and measuring viability using CellTiter Glo (Promega). Bliss scores were calculated as described previously. (Borisy A A, Elliott P J, Hurst N W, Lee M S, Lehar J, Price E R, Systematic discovery of multicomponent therapeutics, Proceedings of the National Academy of Sciences of the United States of America, 2003; 100(13):7977-82, Epub 2003/06/12).
To compare how pancreatic cancer cells cultured in 2-dimensional (2D) and 3-dimensional (3D) cultures respond to various cancer therapeutic agents, we treated the KAS mutant PDAC cancer cell line KP4 with a panel of 203 small molecule inhibitors of cancer-relevant targets and known chemotherapeutics (Table 1).
For 3D cultures, described herein is a method to facilitate a relatively rapid “high-throughput” analysis. […] Their drug sensitivity pattern was also similar to previously described spheroids (FIGS. 28 & 29).

The next assay has as its system KP4 xenografts. It is filed as in vivo. How it is done: (§1) All animal studies were carried out in compliance with National Institutes of Health Guide for the Care and Use of Laboratory Animals. […] Two xenograft models were used: the human PDAC-derived cell line KP4 and cells derived from tumors isolated from KPP GEMM mice. 5×10^6 cells were subcutaneously implanted into the right flanks of immune-deficient mice (Charles River Laboratories) without using any Matrigel. […] Tumor volumes were measured using Ultra-Cal IV calipers at the indicated intervals. To appropriately analyze the repeated measurement of tumor volumes from the same animals over time, a mixed modeling approach was used. (Jose Pinheiro D B, Saikat DebRoy, Deepayan Sarkar, R Core team. Linear and Nonlinear mixed effects models. Package ‘nlme’2008). This approach addresses both repeated measurements and modest dropouts due to any non-treatment-related deaths of animals before the study end. Cubic regression splines were used to fit a non-linear profile to time courses of log2 tumor volume at each dose level. These non-linear profiles were then related to the dose within the mixed model.
(§2) To determine the uncertainty intervals (UIs) for % TGI, the fitted curve and the fitted covariance matrix were used to generate a random sample as an approximation to the distribution of % TGI. […] The reported UIs were the values for which 95% of the time the recalculated values of % TGI would fall in this region given the fitted model. The 2.5 and 97.5 percentiles of the simulated distribution were used as the upper and lower UIs. Tumor growth inhibition >60% was considered meaningful. (Wong H, Choo E F, Alicke B, Ding X, La H, McNamara E, Antitumor activity of targeted and cytotoxic agents in murine subcutaneous tumor models correlates with clinical response, Clinical Cancer Research: an official journal of the American Association for Cancer Research, 2012; 18(14):3846-55. Epub 2012/06/01).
(§3) Plotting was performed and generated using R, version 2.8.1 (R Development Core Team 2008; R Foundation for Statistical Computing; Vienna, Austria) and Excel, version 12.0.1 (Microsoft Corporation). Data were analyzed using R, version 2.8.1, and the mixed models were fit within R using the nlme package, version 3.1-89 (41).

Another assay concerns KPP xenografts. The assay is classed as in vivo. The following applies: cobimetinib 5 mg/kg and/or ponatinib 30 mg/kg, PO, QD; for Tumor volume (last day): in mm³ (unit assumed). On the procedure: as §1, §2, §3
The test system of the next assay is PDAC cell lines. Nature of the assay: Cell viability assay (CellTiter Glo) with Bliss analysis in PDAC cell lines, 2D and 3D. It is filed as cell-based, human. On the procedure: Cell viability assays were performed by treating cells with a dose titration (0.001 to 10 μM) or fixed dose (1 μM) of the various pharmacologic inhibitors for 72 hrs and measuring viability using CellTiter Glo (Promega). Bliss scores were calculated as described previously.
(ATP-based viability assays read luminescence as a measure of living cells.)

The test system of assay [1] is PDGFRα, S6 and STAT3 activation. Nature of the assay: Western blot of signaling proteins in PDAC cells (2D and 3D). It is filed as cell-based, human. The note with it: KP4 cells. On the procedure:
Cells were seeded in 10 cm dishes and treated with 1 μM of small molecule inhibitors for 24 hrs. Cell lysates were prepared in RIPA lysis buffer (Thermo Scientific) containing a protease inhibitor cocktail (Thermo Scientific), SDS-PAGE was performed and proteins were transferred to nitrocellulose membranes. Immunoblotting was performed using standard methods. Protein bands were quantified using ImageJ software. Primary antibodies: p-Erk, p-STAT3, p-S6, total-S6, p-PDGFRα, p-PDGFRβ, p-RSK3, cleaved PARP, Bcl-xL, Mcl, survivin, Rab11, p-Akt, β-Actin, GAPDH (Cell Signaling), total-STAT3, total-PDGFRα (Santa Cruz Biotechnology), p-EphA7 (Gene Tex) and p-EphA2/3, EphA2/5 (MyBioscource).

A further assay deals with IL-6 secretion. Nature of the assay: IL-6 secretion in 2D culture supernatants of PDAC cell lines. The assay is classed as cell-based, human. The following applies: multiple PDAC cell lines, 24 hrs.
For assay [2], the system named is serum growth factors and cytokines. Nature of the assay: Luminex assay / ELISA of plasma samples of KP4 xenograft mice. The assay is classed as in vivo. On the technique in general: ELISA stands for enzyme-linked immunosorbent assay.
In another assay the test system is xenograft tumors. Description: Histopathology, IHC/IF staining and immunoblotting of grafted tumors. The assay is classed as in vivo, mice. How it is done: Cells were seeded in 10 cm dishes and treated with 1 μM of small molecule inhibitors for 24 hrs. Cell lysates were prepared in RIPA lysis buffer (Thermo Scientific) containing a protease inhibitor cocktail (Thermo Scientific), SDS-PAGE was performed and proteins were transferred to nitrocellulose membranes. Immunoblotting was performed using standard methods. Protein bands were quantified using ImageJ software. Primary antibodies: p-Erk, p-STAT3, p-S6, total-S6, p-PDGFRα, p-PDGFRβ, p-RSK3, cleaved PARP, Bcl-xL, Mcl, survivin, Rab11, p-Akt, β-Actin, GAPDH (Cell Signaling), total-STAT3, total-PDGFRα (Santa Cruz Biotechnology), p-EphA7 (Gene Tex) and p-EphA2/3, EphA2/5 (MyBioscource). Immunohistochemistry and immunofluorescence were performed on 4 μm thick sections cut from formalin-fixed paraffin-embedded cell pellets, whole tissue sections, and TMA blocks (US Biomax, Inc.). Slides were deparaffinized and antigen unmasking was performed on PT Module (Thermo Scientific) with Target Retrieval Solution (Dako). […] Antibody binding was detected using Vecstatin ABC Elite horseradish peroxidase (Vector Laboratories) or PowerVision Poly-HRP (Leica Biosystems) and metal-enhanced 3, 3′-diaminobenzidine (Pierce) for IHC stainings and PowerVision Poly-HRP (Leica Biosystems) along with TSA kits (Life Technologies) for immunofluorescence staining. […]

Setting [3] is: cobimetinib 5 mg/kg and/or ponatinib 30 mg/kg, PO, QD.

The structures appear in SMILES notation.

Turning to `Cn1cnc2c(F)c(Nc3ccc(Br)cc3Cl)c(C(=O)NOCCO)cc21` [AZD6244], the “differential sensitivity of 3D versus 2D cultures” value (shortened to “differential sensitivity”) with KP4 cells is listed as “more effective on 3D cultures than the 2D cultures”.
`O=C(c1ccc(F)c(F)c1Nc1ccc(I)cc1F)N1CC(O)([C@@H]2CCCCN2)C1` [Cobimetinib]: the “effect on tumor growth (in words)” value in the assay on KP4 xenografts is on record as “ineffective as single agents”. In addition, in the assay with KP4 xenografts (setting [3]), the “% TGI (AUC vs. Vehicle)” value is 70%; the “TTP 2X (Time to Tumor Progression, 2X original volume)” value (from here on “TTP 2X”) amounted to 13; the Tumor volume (last day) stood at 532 mm³. Further, in the assay with KPP xenografts, the “% TGI (AUC vs. Vehicle)” value is 31%; the “TTP 2X” value was 6.5; the “Tumor volume (last day)” value is recorded as 917. Moreover, in the assay on KP4 cells, the “differential sensitivity” value is listed as “more effective on 3D cultures than the 2D cultures”. For the same molecule, in the assay on PDAC cell lines, the “effect on cell viability as single agents” value is “no effect on cell viability”. Besides, the “activation of p-PDGFRα, p-STAT3 and p-S6 (western blot)” value in assay [1] was “increased level of activation”. The “secretion of IL-6” value in the assay on IL-6 secretion is listed as “increased secretion of the IL-6 ligand”. The “serum growth factor and cytokine levels” value in assay [2] was “Significantly elevated serum levels of PDGFα, PDGFβ, and increased levels of IL-6”. Further, the “p-PDGFRα, p-STAT3 and pS6 in grafted tumors” value in the assay on xenograft tumors was “induction”.
As for `O=C(NOCCO)c1ccc2cncn2c1Nc1ccc(I)cc1F` [GDC-0623], the “differential sensitivity” value in the assay with KP4 cells was “more effective on 3D cultures than the 2D cultures”.
As to `CS(=O)(=O)N1CCN(Cc2cc3nc(-c4cccc5[nH]ncc45)nc(N4CCOCC4)c3s2)CC1` [GDC-0941], in the assay on KP4 cells, the “differential sensitivity” value is given as “more effective on 3D cultures than the 2D cultures”.
The same measure, in the same setting: as for `Cc1c(CN2CCN(C(=O)[C@H](C)O)CC2)sc2c(N3CCOCC3)nc(-c3cnc(N)nc3)nc12` [GDC-0980], the entry is “more effective on 3D cultures than the 2D cultures”; as for `O=C(NOC[C@H](O)CO)c1ccc(F)c(F)c1Nc1ccc(I)cc1F` [PD901], “more effective on 3D cultures than the 2D cultures”.
As for `Cc1ccc(C(=O)Nc2ccc(CN3CCN(C)CC3)c(C(F)(F)F)c2)cc1C#Cc1cnc2cccnn12` [Ponatinib], the “effect on tumor growth (in words)” value in the assay on KP4 xenografts is “ineffective as single agents”. In addition, the “TTP 2X” value is reported as 8.5 in the assay with KP4 xenografts (setting [3]) and 7 in the assay on KPP xenografts. Moreover, the Tumor volume (last day) in the assay with KP4 xenografts (setting [3]) was determined as 408 mm³; with KPP xenografts, 1045. Also, the “effect on cell viability as single agents” value in the assay on PDAC cell lines is recorded as “no effect on cell viability”.
